In article PMC8470367, “Antihypertensive and Probiotic Effects of Hidakakombu (Saccharina angustata) Fermented by Lacticaseibacillus casei 001” (Foods, 2021):
In brackets after ≈: the same amount, converted by molar mass.

Target: T1, angiotensin-converting enzyme (ACE)
T1 construct: enzyme of the commercial ACE-kit WST (Dojin / Dojindo)
Test: ACE-kit WST, microplate absorbance
Type: biochemical
Details: measured on HPLC fraction Fr. B isolated from fermented kelp extract, identified as D-Trp; pH and temperature not given

IC50: 73 µg/mL (≈ 357 µM)
Structure (SMILES): N[C@H](Cc1c[nH]c2ccccc12)C(=O)O [D-Trp]
